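48-hour exposure; five concentrations; linearly interpolated endpoints. GI50: concentration for 50% inhibition of growth. TGI is the concentration that stops growth completely.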
Columns and labels:
Assay in all cases: NCI tumour cell line growth inhibition, 48 h
SNB-19 CNS = system: SNB-19 CNS
K-562 leukemia = system: K-562 leukemia
HL-60(TB) leukemia = system: HL-60(TB) leukemia
A498 renal = system: A498 renal
SK-OV-3 ovarian = system: SK-OV-3 ovarian
DU-145 prostate = system: DU-145 prostate
786-0 renal = system: 786-0 renal
PC-3 prostate = system: PC-3 prostate
HS 578T breast = system: HS 578T breast
BT-549 breast = system: BT-549 breast
UO-31 renal = system: UO-31 renal
SNB-75 CNS = system: SNB-75 CNS
UACC-257 melanoma = system: UACC-257 melanoma
KM12 colon = system: KM12 colon

Compound	TGI (SNB-19 CNS)	TGI (K-562 leukemia)	TGI (HL-60(TB) leukemia)	TGI (A498 renal)	TGI (SK-OV-3 ovarian)	TGI (DU-145 prostate)	TGI (786-0 renal)	TGI (PC-3 prostate)	TGI (HS 578T breast)	TGI (BT-549 breast)	TGI (UO-31 renal)	TGI (SNB-75 CNS)	TGI (UACC-257 melanoma)	TGI (KM12 colon)	GI50 (K-562 leukemia)	GI50 (HL-60(TB) leukemia)	GI50 (HS 578T breast)	GI50 (BT-549 breast)	GI50 (KM12 colon)	GI50 (DU-145 prostate)
Cc1ccc(C(=O)Nc2ccc(CP(=O)(O)O)cc2)cc1NC(=O)c1cccc(N)c1	> 100 µM	> 100 µM	> 100 µM	> 100 µM	> 100 µM	> 100 µM	> 100 µM	> 100 µM	> 100 µM	> 100 µM	> 100 µM	> 100 µM	> 100 µM	> 100 µM						
COCCN(CCNC(=O)c1cccc2c(N)c3cccc(C)c3nc12)CCOC	22.3 µM			14.6 µM	42.1 µM	9.64 µM	8.62 µM	8.9 µM	9.86 µM	20.3 µM		4.75 µM	19.9 µM	6.93 µM						
CC1(c2sccc2Cl)CC(c2sccc2Cl)=C(C#N)C(=C(C#N)C#N)N1 (stereo not given)	38.5 µM		> 100 µM	33.3 µM	31.5 µM	31.2 µM	34.5 µM	32.8 µM	48.5 µM	32.3 µM			39.2 µM	46 µM						
CN(C)c1ccc(/C=C/c2ccc(S(N)(=O)=O)cc2)cc1	44.9 µM	> 100 µM	> 100 µM	40.3 µM	31.4 µM	49.8 µM	35.4 µM	34.8 µM	12.6 µM	8.62 µM	34.5 µM	62.6 µM	> 100 µM	> 100 µM	> 100 µM	> 100 µM	3.03 µM	2.14 µM	8.28 µM	
NNC(=O)CC(=O)Nc1cccc(Cl)c1	> 100 µM	> 100 µM	> 100 µM	> 100 µM	> 100 µM	> 100 µM	> 100 µM	> 100 µM	> 100 µM	> 100 µM	> 100 µM	> 100 µM	> 100 µM	> 100 µM						
C=CC(O)(CBr)CCC(Br)C(=C)C (stereo not given)	> 10 µM	> 10 µM	> 10 µM	> 10 µM	> 10 µM	> 10 µM	> 10 µM	> 10 µM	> 10 µM	> 10 µM		> 10 µM	> 10 µM	> 10 µM						
CCOC(=O)c1nc2ccc(C(F)(F)F)cc2nc1Nc1cc(OC)c(OC)c(OC)c1	> 100 µM	> 100 µM	> 100 µM	> 100 µM	> 100 µM	> 100 µM	> 100 µM	> 100 µM	> 100 µM	> 100 µM	> 100 µM	> 100 µM	> 100 µM	> 100 µM						
CC(Oc1ccccc1Cl)C(=O)NN1C(=O)CC(=O)N(c2ccccc2)C1=S (stereo not given)	> 100 µM	> 100 µM	59.7 µM	> 100 µM	> 100 µM	> 100 µM	> 100 µM	> 100 µM	> 100 µM	> 100 µM	> 100 µM	> 100 µM	> 100 µM	> 100 µM						
CSC1NC(c2ccccc2)=C(C#N)C(=O)N1C1OCC(OC(C)=O)C(OC(C)=O)C1OC(C)=O (stereo not given)	> 100 µM	> 100 µM		> 100 µM	> 100 µM	> 100 µM	> 100 µM	> 100 µM	> 100 µM	> 100 µM	> 100 µM	> 100 µM	> 100 µM	> 100 µM						
Nc1ccc2[nH]c(-c3cccc(C(F)(F)F)c3)cc(=O)c2c1	> 100 µM			82.9 µM	> 100 µM	> 100 µM	> 100 µM	97.7 µM	65.6 µM	> 100 µM	> 100 µM	96.9 µM	> 100 µM	> 100 µM						43.6 µM
COC(=O)C1CCC(=S)N1C(=O)OCc1ccccc1 (stereo not given)	> 100 µM	> 100 µM		> 100 µM	> 100 µM	> 100 µM	> 100 µM	> 100 µM	> 100 µM	> 100 µM	> 100 µM	> 100 µM	> 100 µM	> 100 µM						
COc1ccc([N+](=O)[O-])c2c(NCCCN(C)C)ccnc12	28.2 µM	5.73 µM	22.8 µM	5.18 µM	43.2 µM	29.1 µM	30.6 µM	30.8 µM	34.6 µM	6.45 µM	17.3 µM	15.8 µM	12 µM	24.2 µM						
CCOC(=O)c1cc(-n2nnc3ccccc32)cn1C	> 10 µM	> 10 µM	> 10 µM	> 10 µM	> 10 µM	> 10 µM	> 10 µM	> 10 µM	> 10 µM	> 10 µM	> 10 µM	> 10 µM	> 10 µM	> 10 µM						
CCOC(=O)/C=C(\C(=O)OCC)n1ccc(=O)n(Cc2cnnn2CCCCOC(C)=O)c1=O		10.2 µM		37.6 µM	> 75.7 µM	36.1 µM	> 37.5 µM	30.8 µM	58.9 µM	30.2 µM	36.5 µM	31.5 µM	27.4 µM	30.5 µM	2.1 µM					
COC(=O)C1Cc2ccc(O)c(O)c2CN1 (stereo not given)	> 100 µM	83.6 µM	72.6 µM	> 100 µM	> 100 µM	81.2 µM	31.8 µM	84.3 µM	56 µM	32.2 µM	51.8 µM	34.4 µM	29.2 µM	> 100 µM						
CC(O)C1(CNc2cc(Cl)nc(N)n2)CCCCC1 (stereo not given)	> 100 µM	> 100 µM	> 100 µM	> 100 µM	> 100 µM	> 100 µM	> 100 µM	> 100 µM	> 100 µM	> 100 µM	> 100 µM	> 100 µM	> 100 µM	> 100 µM						
S=C1NC2=C(COc3ccccc32)C(c2ccc(Cl)cc2)N1 (stereo not given)	45.3 µM	38.1 µM	43.3 µM	39.1 µM	35.8 µM	35.7 µM	34.5 µM	26.2 µM	50.4 µM	41.5 µM	35.1 µM	38 µM	41.6 µM	32.7 µM						

Compound	TGI (SNB-19 CNS)	TGI (K-562 leukemia)	TGI (HL-60(TB) leukemia)	TGI (A498 renal)	TGI (SK-OV-3 ovarian)	TGI (DU-145 prostate)	TGI (786-0 renal)	TGI (PC-3 prostate)	TGI (HS 578T breast)	TGI (BT-549 breast)	TGI (UO-31 renal)	TGI (SNB-75 CNS)	TGI (UACC-257 melanoma)	TGI (KM12 colon)	GI50 (K-562 leukemia)	GI50 (HL-60(TB) leukemia)	GI50 (HS 578T breast)	GI50 (BT-549 breast)	GI50 (KM12 colon)	GI50 (DU-145 prostate)
NC(N)=NS(=O)(=O)c1ccc(N/N=C2/CCOC2=O)cc1	> 100 µM	> 100 µM	> 100 µM	> 100 µM	> 100 µM	> 100 µM	> 100 µM	> 100 µM	> 100 µM	> 100 µM	> 100 µM	58.7 µM	> 100 µM	> 100 µM						
CC(=O)Oc1cc(S(=O)(=O)Nc2n[nH]c(Nc3ccc(C)cc3)n2)c(S)cc1Cl	> 100 µM	> 100 µM	> 100 µM	> 100 µM		> 100 µM	> 100 µM	> 100 µM	> 100 µM	> 100 µM	> 100 µM		> 100 µM	> 100 µM						
CCOC(=O)NN(C(=O)OCC)C(C(=O)C1=CCCCC1)N(NC(=O)OCC)C(=O)OCC	> 100 µM	> 100 µM		> 100 µM	> 100 µM	> 100 µM	> 100 µM	> 100 µM	> 100 µM	> 100 µM	> 100 µM	> 100 µM	> 100 µM	> 100 µM						
COc1cc(-c2nc3ccc(N4CCN(C)CC4)cc3[nH]2)c(OC)c2[nH]c(COC(C)=O)nc12	> 100 µM	> 100 µM	> 100 µM	> 100 µM	> 100 µM	95.5 µM	> 100 µM	> 100 µM	> 100 µM	> 100 µM	> 100 µM	82 µM	> 100 µM	> 100 µM						
CCCCn1c(CSc2ccc(Cl)cc2)c(C(=O)OCC)c2cc(OC)c(Br)cc21	> 100 µM	> 100 µM	> 100 µM	> 100 µM	> 100 µM	> 100 µM	> 100 µM	> 100 µM	> 100 µM	> 100 µM	> 100 µM	> 100 µM	> 100 µM	> 100 µM						
O=[N+]([O-])C(/C=C(\Cl)[N+](=O)[O-])=C1Nc2ccccc2N1	> 100 µM	> 100 µM	> 100 µM	70.4 µM	> 100 µM	> 100 µM	> 100 µM	> 100 µM	> 100 µM	> 100 µM	> 100 µM	> 100 µM	> 100 µM	> 100 µM						
COC(=O)/C=C\C(C#N)(C#N)N=Cc1cccc(OC)c1	46.3 µM	> 100 µM	> 100 µM	34.7 µM	47.1 µM	27.7 µM	13.7 µM	29.5 µM	38 µM	20.4 µM	8.46 µM	29.6 µM	29.8 µM	32.6 µM						
S=C(N/N=C(\c1ccccc1)c1ccccn1)NC1CCCCC1	> 100 µM	> 100 µM	> 100 µM	> 100 µM	> 100 µM	> 100 µM	> 100 µM	> 100 µM	> 100 µM	> 100 µM	> 100 µM	> 100 µM	> 100 µM	> 100 µM						
COc1cccc(C23CCCC(C2)NCC3Br)c1OC (stereo not given)	> 100 µM	> 100 µM		31.3 µM	> 100 µM	> 100 µM	> 100 µM	> 100 µM	78.5 µM	92.3 µM	> 100 µM	> 100 µM	> 100 µM	> 100 µM						
COc1ccccc1Cc1ccc(C2C=CC3(CC(=O)C=C3C)C(=O)C2)o1 (stereo not given)	> 100 µM	50.1 µM	41.7 µM	47.7 µM		> 100 µM	41.9 µM	38.3 µM	68.7 µM	58.7 µM	> 100 µM		68.9 µM	> 100 µM						
Cc1cc(S(=O)(=O)N2CCNNC2=O)c(S)cc1Cl	> 100 µM	> 100 µM	> 100 µM	> 100 µM		> 100 µM	43 µM	> 100 µM	> 100 µM	64.2 µM	> 100 µM	> 100 µM	> 100 µM	> 100 µM						
CC(=O)Nc1ccc2nc(-c3ccccn3)c(-c3ccccn3)nc2c1	> 100 µM	> 100 µM	> 100 µM	> 100 µM		> 100 µM	> 100 µM	> 100 µM	> 100 µM	> 100 µM	> 100 µM	> 100 µM	> 100 µM	> 100 µM						
COc1ccc(/C=C/C(=O)/C=C/c2ccc(OC)cc2OC)c(OC)c1	82.8 µM	8.4 µM	13.9 µM		37.7 µM	35.3 µM	29 µM	44.2 µM	> 100 µM	48 µM	41.3 µM	45.1 µM	39.9 µM	> 100 µM						
OC1c2ccccc2CCC1CN1CCN(CCOC(c2ccc(F)cc2)c2ccc(F)cc2)CC1 (stereo not given)	> 100 µM	27.5 µM		26.9 µM	> 100 µM	61.4 µM	25 µM	> 100 µM	45.8 µM	25.1 µM		70.5 µM	35.3 µM	> 100 µM						
Cc1nc(SCC(=O)Nc2ccc(Cl)cc2)c2sc(=S)n(-c3ccccc3)c2n1	> 10 µM	> 10 µM	> 10 µM	> 10 µM	> 10 µM	> 10 µM	> 10 µM	> 10 µM	> 10 µM	> 10 µM		> 10 µM	> 10 µM	> 10 µM						
CCNC(=O)c1cc(Cl)ccc1NC(=O)C12CC3CC(CC(C3)C1)C2	> 100 µM	> 100 µM	> 100 µM	> 100 µM		88.9 µM	61 µM	> 100 µM	> 100 µM	> 100 µM	56.4 µM		> 100 µM	> 100 µM						
O=C1c2ccccc2C(=O)N1CCSCC(CO)SCCN1C(=O)c2ccccc2C1=O (stereo not given)	> 100 µM	> 100 µM	50.5 µM	> 100 µM	> 100 µM	> 100 µM	> 100 µM	> 100 µM	> 100 µM	> 100 µM	> 100 µM		> 100 µM	> 100 µM						

— PubChem BioAssay (NCI)
